Experimental data taken from the supplement of paper PMC13207355.

Experiments:
Conditions in all cases: exposure time: 72 h
E13 [1] = patient-derived glioblastoma stem cells of classical subtype; assay: surviving fraction (nuclei count normalised to DMSO); higher = more cells surviving (less toxic)
E31 [2] = patient-derived glioblastoma stem cells of proneural subtype; assay: as above
E57 [3] = patient-derived glioblastoma stem cells of mesenchymal subtype; assay: as above
FT3469 [4] = normal neural stem cell line; assay: as above
E28 [5] = patient-derived glioblastoma stem cells of classical subtype; assay: as above
E21 [6] = patient-derived glioblastoma stem cells of mesenchymal subtype; assay: as above
E34 [7] = patient-derived glioblastoma stem cells of proneural subtype; assay: as above
E13 [8] = assay: phenotypic distance (Euclidean, principal components) from DMSO controls (arbitrary units); higher = stronger morphological change
E31 [9] = assay: as above
E57 [10] = assay: as above
FT3469 [11] = assay: as above
E28 [12] = assay: as above
E21 [13] = assay: as above
E34 [14] = assay: as above
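Wherever phenotypic distance (Euclidean, principal components) from DMSO controls is given: cell Painting imaging in 384-well plates, CellProfiler features reduced to at least 20 principal components, Euclidean distance versus same-plate DMSO vehicle wells (0.1% v/v), median over six images per well.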
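Wherever surviving fraction (nuclei count normalised to DMSO) is given: nuclei counted by high-content imaging of Hoechst-stained cells in laminin-coated 384-well plates, relative to 0.1% DMSO vehicle wells, with staurosporine as cell-death control.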

COc1cc2c(cc1O)CC[C@@H]1[C@@H]2CC[C@]2(C)[C@@H](O)CC[C@@H]12 [2-methoxyestradiol]
Conditions	phenotypic distance	surviving fraction
E13 [1], 4.1 nM	–	0.992
E13 [1], 12.3 nM	–	0.961
E13 [1], 37 nM	–	0.838
E13 [1], 111.1 nM	–	1.04
E13 [1], 333.3 nM	–	0.816
E13 [1], 1000 nM	–	0.777
E13 [1], 3000 nM	–	0.174
E13 [8], 4.1 nM	0.645	–
E13 [8], 12.3 nM	0.821	–
E13 [8], 37 nM	1.01	–
E13 [8], 111.1 nM	1.47	–
E13 [8], 333.3 nM	0.958	–
E13 [8], 1000 nM	1.4	–
E13 [8], 3000 nM	5.03	–
E21 [6], 4.1 nM	–	0.888
E21 [6], 12.3 nM	–	0.932
E21 [6], 37 nM	–	0.919
E21 [6], 111.1 nM	–	0.885
E21 [6], 333.3 nM	–	0.928
E21 [6], 1000 nM	–	0.803
E21 [6], 3000 nM	–	0.257
E21 [13], 4.1 nM	1	–
E21 [13], 12.3 nM	1.01	–
E21 [13], 37 nM	0.858	–
E21 [13], 111.1 nM	1.42	–
E21 [13], 333.3 nM	1.01	–
E21 [13], 1000 nM	1.82	–
E21 [13], 3000 nM	6.05	–
E28 [5], 4.1 nM	–	1.14
E28 [5], 12.3 nM	–	0.843
E28 [5], 37 nM	–	0.86
E28 [5], 111.1 nM	–	0.687
E28 [5], 333.3 nM	–	0.862
E28 [5], 1000 nM	–	0.768
E28 [5], 3000 nM	–	0.41
E28 [12], 4.1 nM	0.862	–
E28 [12], 12.3 nM	1.15	–
E28 [12], 37 nM	0.941	–
E28 [12], 111.1 nM	1.27	–
E28 [12], 333.3 nM	0.698	–
E28 [12], 1000 nM	1.54	–
E28 [12], 3000 nM	3.97	–
E31 [2], 4.1 nM	–	1.08
E31 [2], 12.3 nM	–	0.913
E31 [2], 37 nM	–	0.985
E31 [2], 111.1 nM	–	0.862
E31 [2], 333.3 nM	–	0.731
E31 [2], 1000 nM	–	0.63
E31 [2], 3000 nM	–	0.194
E31 [9], 4.1 nM	0.701	–
E31 [9], 12.3 nM	0.672	–
E31 [9], 37 nM	0.712	–
E31 [9], 111.1 nM	0.758	–
E31 [9], 333.3 nM	0.88	–
E31 [9], 1000 nM	1.61	–
E31 [9], 3000 nM	5.31	–
E34 [7], 4.1 nM	–	0.925
E34 [7], 12.3 nM	–	0.876
E34 [7], 37 nM	–	1.11
E34 [7], 111.1 nM	–	1.07
E34 [7], 333.3 nM	–	1.02
E34 [7], 1000 nM	–	0.876
E34 [7], 3000 nM	–	0.388
E34 [14], 4.1 nM	0.764	–
E34 [14], 12.3 nM	2.41	–
E34 [14], 37 nM	0.956	–
E34 [14], 111.1 nM	0.641	–
E34 [14], 333.3 nM	0.508	–
E34 [14], 1000 nM	1.21	–
E34 [14], 3000 nM	4.96	–
E57 [3], 4.1 nM	–	1.04
E57 [3], 12.3 nM	–	1.02
E57 [3], 37 nM	–	1.09
E57 [3], 111.1 nM	–	1.06
E57 [3], 333.3 nM	–	1.03
E57 [3], 1000 nM	–	0.891
E57 [3], 3000 nM	–	0.19
E57 [10], 4.1 nM	0.835	–
E57 [10], 12.3 nM	1.06	–
E57 [10], 37 nM	0.97	–
E57 [10], 111.1 nM	0.943	–
E57 [10], 333.3 nM	0.975	–
E57 [10], 1000 nM	2.06	–
E57 [10], 3000 nM	7.41	–
FT3469 [4], 4.1 nM	–	0.794
FT3469 [4], 12.3 nM	–	0.981
FT3469 [4], 37 nM	–	1
FT3469 [4], 111.1 nM	–	0.858
FT3469 [4], 333.3 nM	–	0.846
FT3469 [4], 1000 nM	–	0.855
FT3469 [4], 3000 nM	–	0.527
FT3469 [11], 4.1 nM	1.02	–
FT3469 [11], 12.3 nM	0.62	–
FT3469 [11], 37 nM	0.868	–
FT3469 [11], 111.1 nM	0.854	–
FT3469 [11], 333.3 nM	0.793	–
FT3469 [11], 1000 nM	0.919	–
FT3469 [11], 3000 nM	3.47	–
